Emission maximum data for 43 molecules are collected here from the Deep4Chem optical property database.

This series can be described thus: solvent given as SMILES.

`O=C(c1ccc2c3c(cccc13)-c1cccc3c1C2CC=C3)c1c(CCc2ccccc2)c2ccc3cccc4c5cccc6ccc1c(c65)c2c34` (stereo not drawn) gave an emission maximum (in ClCCl) of 527 nm.

The molecule `COc1ccc(OC)cc1` gave an emission maximum (in C1CCCCC1) of 323.21 nm.

Molecule `C1=Cc2ccccc2C(=Cc2ccc(C=C3c4ccccc4-c4ccccc43)cc2)c2ccccc21` showed an emission maximum (in C1CCOC1) of 444 nm.

On to `CC(O)CC1=N/C(=C\c2cccc(N(C)C)c2)C(=O)N1C` (stereo not drawn), for which the emission maximum is recorded as 585 nm (in C1CCOC1), 642 nm (in CC#N) and 506 nm (in CCCCCC).

Under “in ClCCl”, `CCCC1=Cc2nc1ccc1[nH]c(cc1CCC)c1nc(c(NC(=O)CCCC(=O)O)cc3[nH]c2cc3CCC)C(CCC)=C1` showed an emission maximum of 680 nm.

`CC(C)(C)OC(=O)NC(Cc1ccccc1)C(=O)OCc1ccc2c3cccc4cccc(c5cccc1c52)c43` (stereo not drawn): the emission maximum (in CCO) stood at 447 nm.

With `CCn1c(=O)nc2n(C)c3cc(C)ccc3nc-2c1=O`, the emission maximum reads like this: (in C1COCCO1) 527 nm; (in CC#N) 530 nm; (in CO) 532 nm; (in ClCCCl) 531 nm.

In the case of `CC1(C)CCc2c(c3ccccc3c3nc4ccccc4nc23)O1`, the emission maximum (in C1CCCCC1) came to 459.98 nm; the emission maximum (in C1CCOC1) was 483.09 nm; the emission maximum (in CN(C)C=O) amounted to 501 nm; the emission maximum (in CO) is given as 510.99 nm; the emission maximum (in ClC(Cl)Cl) is 490.92 nm; the emission maximum (in c1ccccc1) is on record as 471.03 nm.

Turning to `FC(F)(F)c1ccc(/C=C/c2ccc(-c3nnc(-c4ccc(-c5cc6ccccc6s5)cc4)o3)cc2)cc1`, the emission maximum is, setting by setting: (in CC#N) 388 nm; (in CC(C)=O) 390 nm; (in CCCCCCCC) 387 nm; (in CCCCCCCCCCO) 395 nm; (in CCCCCCCCO) 394 nm; (in CCCCCO) 393 nm. Also, the emission maximum was found to be 391 nm (in CCCO), 416 nm (in CN(C)C=O), 389 nm (in CO) and 397 nm (in CS(C)=O).

Turning to `Cc1c(C)c2c3ccccc3[nH]c2c2ccccc12`, for the setting “in ClCCl”, the emission maximum is reported as 370 nm.

In the case of `CCC1=C(C)C(=O)n2c1cc1c(CCC(=O)O)c(C)c(C)n1c2=O`, the emission maximum is, setting by setting: (in CO) 540 nm; (in CS(C)=O) 510 nm; (in ClC(Cl)Cl) 500 nm; (in c1ccccc1) 470 nm.

In the case of `O=C1c2cccc3c(-n4c5ccccc5c5ccccc54)ccc(c23)C(=O)N1c1ccccc1`, the emission maximum runs as follows: (in C1CCOC1) 546 nm; (in CCCCCC) 443 nm; (in ClC(Cl)Cl) 495 nm; (in ClCCl) 568 nm.

On to `c1cc2ccc1-c1ccc(cc1)-c1ccc([se]1)-c1ccc(cc1)-c1ccc(cc1)-c1ccc([se]1)-c1ccc(cc1)-c1ccc(cc1)-c1ccc([se]1)-c1ccc(cc1)-c1ccc(cc1)-c1ccc-2[se]1`, for which, for the setting “in C1CCOC1”, the emission maximum is given as 492 nm.

`CN1C(=CC2=C([O-])C(=CC3=[N+](C)c4ccccc4C3(C)C)C2=C2C(=O)c3ccccc3C2=O)C(C)(C)c2ccccc21`: the emission maximum (in ClC(Cl)Cl) stood at 699 nm.

Take `N#Cc1ccc(-c2ccc(C3=CCCCC3)s2)s1`: the emission maximum reads like this: (in C1CCOC1) 441 nm; (in CC#N) 448 nm; (in CCCCCC) 427 nm; (in CCO) 436 nm; (in OCCOCCO) 449 nm; (in c1ccncc1) 448 nm.

On to `CC(=O)c1ccc(-c2cccc3ncc(-c4ccccc4)n23)cc1`, for which the emission maximum (in ClCCl) turned out to be 506 nm.

Molecule `CCOC(=O)c1c(-c2cc3c(ccc4ccccc43)oc2=O)nn(-c2cccc(C)c2)c1C(=O)OCC` registered an emission maximum (in ClCCl) of 440 nm.

`CCOC(=O)CN1C(=O)C2=C(c3ccc(C#N)cc3)N(CC(=O)OCC)C(=O)C2=C1c1ccc(C#N)cc1` displayed an emission maximum (in CC#N) of 549 nm, an emission maximum (in CS(C)=O) of 557 nm and an emission maximum (in Cc1ccccc1) of 558 nm.

`CN(C)c1ccc(-c2nc3nccnc3n2-c2ccccc2)cc1` registered an emission maximum (in CC#N) of 477 nm.

Where the note is “in CC#N”, `COC(=O)/C=C/c1sc(-c2ccc(N(C)C)cc2)c(-c2cccnc2)c1N` registered an emission maximum of 593 nm.

`CCCCCCOc1ccc(N(c2ccc(OCCCCCC)cc2)c2ccc(-c3sc(-c4ccc(N(c5ccc(OCCCCCC)cc5)c5ccc(OCCCCCC)cc5)cc4)c4nc(-c5ccc(OC)cc5)c(-c5ccc(OC)cc5)nc34)cc2)cc1` showed an emission maximum (in ClCCl) of 752 nm.

Take `Cc1ccc(N2C(c3ccccc3N(C)C)=NC(c3ccccc3)C2c2ccccc2)cc1` (stereo not drawn): where the note is “in Cc1ccccc1”, the emission maximum is recorded as 422 nm.

Consider `Nc1ccc2ccc([O-])cc2c1`, for which the emission maximum (in O) is recorded as 407 nm.

`COc1ccc2cc(/C=C/C3=[O+][B-](F)(F)OC(/C=C/c4ccc5cc(OC)ccc5c4)=C3c3ccccc3)ccc2c1` yielded an emission maximum (in ClCCl) of 600 nm.

On to `CN(C)c1ccc(/C=C/c2cnc(/C=C/c3ccc(C#N)cc3)o2)cc1`, for which, where the note is “in ClCCl”, the emission maximum is on record as 640 nm.

For `COc1ccc(/C=C/c2ccc(-c3nnc(-c4ccc(-c5cc6ccccc6s5)cc4)o3)cc2)cc1`, the emission maximum was 441 nm (in CC#N); 449 nm (in CC(C)=O); 407 nm (in CCCCCCCC); 427 nm (in CCCCCCCCCCO); 433 nm (in CCCCCCCCO); 436 nm (in CCCCCO). The emission maximum is, setting by setting: (in CCCO) 438 nm; (in CN(C)C=O) 463 nm; (in CO) 445 nm; (in CS(C)=O) 459 nm.

For `CCn1c2ccccc2c2cc(/C=C/c3cccc[n+]3CCCS(=O)(=O)[O-])ccc21`, the emission maximum is, setting by setting: (in C1CCOC1) 559 nm; (in CC#N) 565 nm; (in CC(C)=O) 565 nm; (in Cc1ccccc1) 590 nm.

For the molecule `Cc1ccc(C2=C3C=C(I)C=[N+]3[B-](F)(F)n3c2cc(I)c3I)cc1`, the emission maximum runs as follows: (in C1CCCCC1) 577.5 nm; (in CC#N) 578 nm; (in CCO) 582 nm; (in CCOC(C)=O) 578.5 nm; (in CO) 580 nm; (in OCC(F)(F)F) 576 nm.

As for `C#CCOc1ccc(C2=[N+]3C(=Nc4c(-c5ccccc5)cc(-c5ccc(O)cc5)n4[B-]3(F)F)C(c3ccccc3)=C2)cc1`, the emission maximum runs as follows: (in CO) 716 nm; (in Cc1ccccc1) 711 nm; (in ClC(Cl)Cl) 708 nm.

`CN(C)c1ccc(/C=C/c2cc(/C=C/c3ccc(N(C)C)cc3)nc(/C=C/c3ccc(N(c4ccccc4)c4ccccc4)cc3)n2)cc1` came in with an emission maximum (in C1CCOC1) of 521 nm; an emission maximum (in CC#N) of 584 nm; an emission maximum (in CC(C)=O) of 561 nm; an emission maximum (in CCCCCCC) of 451 nm; an emission maximum (in CS(C)=O) of 596 nm; an emission maximum (in Cc1ccccc1) of 480 nm. Further, for the setting “in ClCCl”, the emission maximum was 533 nm.

Turning to `c1csc(-c2ccc(-c3cccs3)c3nsnc23)c1`, under “in ClC(Cl)Cl”, the emission maximum was 565 nm.

Take `c1ccc(-c2cc(-c3ccc(N4c5ccccc5C(c5ccccc5)(c5ccccc5)c5ccccc54)cc3)nc(-c3ccccc3)n2)cc1`: the emission maximum amounted to 450 nm (in Cc1ccccc1) and 464 nm (in O=P(c1ccccc1)(c1ccccc1)c1ccccc1Oc1ccccc1P(=O)(c1ccccc1)c1ccccc1).

Regarding `CCN(C)c1ccc(C2=C3C(C)=CC(/C=C/c4ccc(OCCCN=[N+]=[N-])cc4)=[N+]3[B-](F)(F)n3c(C)cc(C)c32)cc1`, under “in CO”, the emission maximum stood at 586 nm.

For the molecule `COc1cc2c(cc1OC)C1=C[C@H](c3ccccc3)C3(C(C#N)=C(C#N)N1CC2)c1ccccc1-c1ccccc13`, the emission maximum (in ClCCl) is 410 nm.

Consider `CCN1C(=CC2=C([O-])C(=CC3=[N+](CC)c4ccccc4C3(C)C)C2=O)C(C)(C)c2ccccc21`, for which the emission maximum runs as follows: (in CO) 644 nm; (in ClC(Cl)Cl) 645 nm.

In turn, `COc1ccc(C#Cc2ccc3ccc(=O)oc3c2)cc1` came in with an emission maximum (in CC#N) of 465 nm.

Molecule `CC(=O)c1ccc(-c2cnc3nn4ccccc4c3c2)cc1` yielded an emission maximum (in C1CCOC1) of 420 nm.

On to `CCCCCCCCCCCCCCn1c(-c2cc(-c3nc4ccc(C)cc4n3CCCCCCCCCCCCCC)cc(-c3nc4ccc(C)cc4n3CCCCCCCCCCCCCC)c2)nc2ccc(C)cc21`, for which, under “in C1CCOC1”, the emission maximum was determined as 368.6 nm.

In the case of `CNc1cccc2c1C(=O)c1ccccc1C2=O`, the emission maximum came out at 565 nm (in C1CCC2CCCCC2C1); 563 nm (in C1CCCCC1); 565 nm (in CC1CCCCC1); 617 nm (in CC#N); 562 nm (in CCC(C)CC); 560 nm (in CCCCCC). The emission maximum (in CCOC(C)=O) is recorded as 600 nm.

`c1cc2ccc3cc4[nH]c(-c5cc6c(cc7ccc8cccc9ccc6c7c89)[nH]5)cc4c4ccc(c1)c2c34`: the emission maximum (in C1CCOC1) turned out to be 482 nm.

Molecule `CCCCCCCCN1C(=O)c2ccc3c4c(-c5ccc(-n6c7ccccc7c7ccccc76)cc5)cc5c6c(ccc(c7c(-c8ccc(-n9c%10ccccc%10c%10ccccc%109)cc8)cc(c2c37)C1=O)c64)C(=O)N(CCCCCCCC)C5=O` returned an emission maximum (in ClC(Cl)Cl) of 651 nm.

On to `C#CCOc1ccc(/C=C/C2=[N+]3C(=C(c4ccccc4)c4c(C)cc(C)n4[B-]3(F)F)C(C)=C2)cc1`, for which, under “in CO”, the emission maximum is reported as 574 nm.

In the case of `CC1=CC(C)=[N+]2C1=C(c1ccc(-c3c4ccccc4c(-c4ccccc4)c4ccccc34)cc1)c1c(C)cc(C)n1[B-]2(F)F`, the emission maximum (in CC#N) worked out at 508 nm; the emission maximum (in CCCCCC) was 511 nm; the emission maximum (in CCO) is reported as 510 nm; the emission maximum (in CN(C)C=O) was determined as 510 nm; the emission maximum (in Cc1ccccc1) amounted to 515 nm; the emission maximum (in ClCCl) came out at 512 nm.
